Measured values published in the supplement of paper PMC10627819.

Tests used:
[1] = test system: B. subtilis 168; assay: Bliss interaction score (quartile over a dose matrix) (fitness difference); higher = more antagonism (negative = synergy)
Summary of the method: (§1)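 The Bliss score subtracts expected fitness, the product of the single-drug fitness values, from observed fitness. Fitness is plate-normalised OD595 at entry into stationary phase, relative to the robust no-drug mean and capped at 1, with single-drug fitness inferred from combinations. Summaries are quartiles over technical, biological and donor/recipient replicates.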

[2] = test system: S. aureus DSM 20231; assay: as above
Summary of the method: as §1

[3] = test system: S. aureus Newman; assay: as above
Summary of the method: as §1

[4] = test system: S. pneumoniae D39V; assay: as above
Summary of the method: as §1

[5] = test system: S. pneumoniae D39V; assay: fitness (endpoint OD595 vs no drug) (fraction); higher = more growth
Summary of the method: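 Fitness is computed from the optical density at which cultures reach stationary phase, divided by the robust mean of no-drug control wells. Any value above 1 is set to 1. Cultures started at OD595 0.01 in 384-well plates with TSB, LB Lennox or CY at 37 °C, and OD595 was read every 30 min for 14 h against a first-reading background.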
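For Bliss interaction score (quartile over a dose matrix) in this document: first quartile when negative (synergy) and third quartile when positive (antagonism).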

CC[C@H]1OC(=O)[C@H](C)[C@@H](O[C@H]2C[C@@](C)(OC)[C@@H](O)[C@H](C)O2)[C@H](C)[C@@H](O[C@@H]2O[C@H](C)C[C@H](N(C)C)[C@H]2O)[C@](C)(OC)C[C@@H](C)C(=O)[C@H](C)[C@@H](O)[C@]1(C)O [Clarithromycin] + CN(C)C(=O)C(CCN1CCC(O)(c2ccc(Cl)cc2)CC1)(c1ccccc1)c1ccccc1 [Loperamide]
Settings | Bliss interaction score
[1] | 0.0248
[2] | 0.18
[3] | -0.0355
[4] | 0.129

fitness, [5], one replicate
Settings | first compound 0.007812 µg/mL | first compound 0.01562 µg/mL | first compound 0.03125 µg/mL | first compound 0.0625 µg/mL | first compound 0.125 µg/mL | first compound 0.25 µg/mL
partner 20 µg/mL | ≥ 1 | ≥ 1 | 0.711 | – | – | –
partner 40 µg/mL | ≥ 1 | 0.995 | 0.768 | – | – | –
partner 68.57 µg/mL | – | – | – | 0.913 | 0.515 | 0.498
partner 80 µg/mL | 0.0268 | 0.0618 | 0.0304 | – | – | –

fitness, [5]
Settings | first compound 0.0625 µg/mL | first compound 0.07 µg/mL | first compound 0.125 µg/mL | first compound 0.14 µg/mL | first compound 0.28 µg/mL
partner 17.14 µg/mL | 0.788 | – | 0.541 | – | –
partner 20 µg/mL | – | 0.168 | – | 0.0771 | 0.0614
partner 34.28 µg/mL | 0.751 | – | 0.491 | – | –
partner 40 µg/mL | – | 0.173 | – | 0.0855 | 0.0994
partner 80 µg/mL | – | 0.0672 | – | 0.0833 | 0.047

CC[C@H]1OC(=O)[C@H](C)[C@@H](O[C@H]2C[C@@](C)(OC)[C@@H](O)[C@H](C)O2)[C@H](C)[C@@H](O[C@@H]2O[C@H](C)C[C@H](N(C)C)[C@H]2O)[C@](C)(OC)C[C@@H](C)C(=O)[C@H](C)[C@@H](O)[C@]1(C)O [Clarithromycin] + CN(C)c1cc(NC(=O)CNC(C)(C)C)c(O)c2c1C[C@H]1C[C@H]3[C@H](N(C)C)C(O)=C(C(N)=O)C(=O)[C@@]3(O)C(O)=C1C2=O [Tigecycline]
Settings | Bliss interaction score
[1] | 0.0852
[2] | 0.0343
[3] | -0.0401
[4] | -0.0848

fitness, [5], one replicate
Settings | first compound 0.007812 µg/mL | first compound 0.01562 µg/mL | first compound 0.03125 µg/mL
partner 0.65 µg/mL | 0.848 | 0.757 | 0.646
partner 1.3 µg/mL | 0.813 | 0.749 | 0.633
partner 2.6 µg/mL | 0.815 | 0.747 | 0.619

fitness, [5]
Settings | first compound 0.0625 µg/mL | first compound 0.07 µg/mL | first compound 0.125 µg/mL | first compound 0.14 µg/mL | first compound 0.25 µg/mL | first compound 0.28 µg/mL
partner 0.325 µg/mL | – | 0.111 | – | 0.071 | – | 0.0539
partner 0.65 µg/mL | 0.589 | 0.0865 | 0.253 | 0.0638 | 0.113 | 0.0627
partner 1.3 µg/mL | 0.506 | 0.0861 | 0.213 | 0.0727 | 0.103 | 0.068
partner 2.6 µg/mL | 0.494 | – | 0.198 | – | 0.119 | –

CC[C@H]1OC(=O)[C@H](C)[C@@H](O[C@H]2C[C@@](C)(OC)[C@@H](O)[C@H](C)O2)[C@H](C)[C@@H](O[C@@H]2O[C@H](C)C[C@H](N(C)C)[C@H]2O)[C@](C)(OC)C[C@@H](C)C(=O)[C@H](C)[C@@H](O)[C@]1(C)O [Clarithromycin] + CN(N=O)C(=O)N[C@@H](C=O)[C@@H](O)[C@H](O)[C@H](O)CO [Streptozotocin]
Settings | Bliss interaction score
[1] | 0.0503
[2] | 0.0361
[3] | -0.0313
[4] | 0.0525

fitness, [5], one replicate
Settings | first compound 0.007812 µg/mL | first compound 0.01562 µg/mL | first compound 0.03125 µg/mL | first compound 0.0625 µg/mL | first compound 0.125 µg/mL | first compound 0.25 µg/mL
partner 1.2 µg/mL | 0.873 | 0.804 | 0.673 | 0.674 | 0.263 | 0.0915
partner 2.4 µg/mL | 0.877 | 0.815 | 0.672 | 0.713 | 0.32 | 0.134
partner 4.8 µg/mL | 0.87 | 0.802 | 0.661 | 0.537 | 0.0252 | 0

fitness, [5]
Settings | first compound 0.07 µg/mL | first compound 0.14 µg/mL | first compound 0.28 µg/mL
partner 1.2 µg/mL | 0.115 | 0.0648 | 0.031
partner 2.4 µg/mL | 0.119 | 0.0981 | 0.0724
partner 4.8 µg/mL | 0.0916 | 0.0774 | 0.033

CC[C@H]1OC(=O)[C@H](C)[C@@H](O[C@H]2C[C@@](C)(OC)[C@@H](O)[C@H](C)O2)[C@H](C)[C@@H](O[C@@H]2O[C@H](C)C[C@H](N(C)C)[C@H]2O)[C@](C)(OC)C[C@@H](C)C(=O)[C@H](C)[C@@H](O)[C@]1(C)O [Clarithromycin] + CN[C@@H]1[C@H](O)[C@H](NC)[C@H]2O[C@@]3(O)C(=O)C[C@@H](C)O[C@H]3O[C@@H]2[C@H]1O [Spectinomycin]
Settings | Bliss interaction score
[1] | -0.0725
[2] | -0.142
[3] | -0.181
[4] | -0.0344

fitness, [5], one replicate
Settings | first compound 0.007812 µg/mL | first compound 0.01562 µg/mL | first compound 0.03125 µg/mL | first compound 0.0625 µg/mL | first compound 0.125 µg/mL | first compound 0.25 µg/mL
partner 4 µg/mL | 0.836 | 0.755 | 0.669 | 0.725 | 0.326 | 0.156
partner 8 µg/mL | 0.741 | 0.72 | 0.658 | 0.676 | 0.221 | 0.114
partner 16 µg/mL | 0.644 | 0.664 | 0.528 | – | – | –

fitness, [5]
Settings | first compound 0.07 µg/mL | first compound 0.14 µg/mL | first compound 0.28 µg/mL
partner 4 µg/mL | 0.138 | 0.0851 | 0.0564
partner 8 µg/mL | 0.138 | 0.0752 | 0.0774
partner 16 µg/mL | 0.114 | 0.0949 | 0.0947

CC[C@H]1OC(=O)[C@H](C)[C@@H](O[C@H]2C[C@@](C)(OC)[C@@H](O)[C@H](C)O2)[C@H](C)[C@@H](O[C@@H]2O[C@H](C)C[C@H](N(C)C)[C@H]2O)[C@](C)(OC)C[C@@H](C)C(=O)[C@H](C)[C@@H](O)[C@]1(C)O [Clarithromycin] + CN[C@@H]1[C@H](O[C@H]2[C@H](O[C@H]3[C@H](O)[C@@H](O)[C@H](N=C(N)N)[C@@H](O)[C@@H]3N=C(N)N)O[C@@H](C)[C@]2(O)C=O)O[C@@H](CO)[C@H](O)[C@H]1O [Streptomycin]
Settings | Bliss interaction score
[1] | 0.0553
[2] | 0.0696
[3] | -0.0521
[4] | -0.0538

fitness, [5], one replicate
Settings | first compound 0.007812 µg/mL | first compound 0.01562 µg/mL | first compound 0.03125 µg/mL | first compound 0.0625 µg/mL | first compound 0.125 µg/mL | first compound 0.25 µg/mL
partner 2 µg/mL | 0.857 | 0.802 | 0.663 | 0.68 | 0.318 | 0.129
partner 4 µg/mL | 0.866 | 0.799 | 0.694 | – | – | –
partner 8 µg/mL | 0.845 | 0.793 | 0.651 | – | – | –
partner 16 µg/mL | – | – | – | 0.478 | 0.184 | 0.0864

fitness, [5]
Settings | first compound 0.0625 µg/mL | first compound 0.07 µg/mL | first compound 0.125 µg/mL | first compound 0.14 µg/mL | first compound 0.25 µg/mL | first compound 0.28 µg/mL
partner 2 µg/mL | – | 0.117 | – | 0.0741 | – | 0.0426
partner 4 µg/mL | 0.623 | 0.103 | 0.3 | 0.0646 | 0.142 | 0.0455
partner 8 µg/mL | 0.594 | 0.154 | 0.312 | 0.0691 | 0.107 | 0.0723

CC[C@H]1OC(=O)[C@H](C)[C@@H](O[C@H]2C[C@@](C)(OC)[C@@H](O)[C@H](C)O2)[C@H](C)[C@@H](O[C@@H]2O[C@H](C)C[C@H](N(C)C)[C@H]2O)[C@](C)(OC)C[C@@H](C)C(=O)[C@H](C)[C@@H](O)[C@]1(C)O [Clarithromycin] + CN[C@H](CC(C)C)C(=O)N[C@H]1C(=O)N[C@@H](CC(N)=O)C(=O)N[C@H]2C(=O)N[C@H]3C(=O)N[C@H](C(=O)N[C@H](C(=O)O)c4cc(O)cc(O)c4-c4cc3ccc4O)[C@H](O)c3ccc(c(Cl)c3)Oc3cc2cc(c3O[C@@H]2O[C@H](CO)[C@@H](O)[C@H](O)[C@H]2O[C@H]2C[C@](C)(N)[C@H](O)[C@H](C)O2)Oc2ccc(cc2Cl)[C@H]1O [Vancomycin]
Settings | Bliss interaction score
[1] | 0.038
[2] | 0.054
[3] | 0.0579
[4] | -0.0529

fitness, [5], one replicate
Settings | first compound 0.007812 µg/mL | first compound 0.01562 µg/mL | first compound 0.03125 µg/mL
partner 0.125 µg/mL | 0.835 | 0.803 | 0.699
partner 0.25 µg/mL | 0.333 | 0.0993 | 0.126
partner 0.5 µg/mL | 0.0664 | 0.0774 | 0.0781

fitness, [5]
Settings | first compound 0.0625 µg/mL | first compound 0.07 µg/mL | first compound 0.125 µg/mL | first compound 0.14 µg/mL | first compound 0.25 µg/mL | first compound 0.28 µg/mL
partner 0.03125 µg/mL | 0.652 | – | 0.381 | – | 0.149 | –
partner 0.0625 µg/mL | 0.577 | – | 0.321 | – | 0.116 | –
partner 0.125 µg/mL | – | 0.101 | 0.281 | 0.0727 | 0.106 | 0.0814
partner 0.25 µg/mL | – | 0.0516 | – | 0.0525 | – | 0.0738
partner 0.5 µg/mL | – | 0.0749 | – | 0.0887 | – | 0.0893

CC[C@H]1OC(=O)[C@H](C)[C@@H](O[C@H]2C[C@@](C)(OC)[C@@H](O)[C@H](C)O2)[C@H](C)[C@@H](O[C@@H]2O[C@H](C)C[C@H](N(C)C)[C@H]2O)[C@](C)(OC)C[C@@H](C)C(=O)[C@H](C)[C@@H](O)[C@]1(C)O [Clarithromycin] + CO[C@H]1/C=C/O[C@@]2(C)Oc3c(C)c(O)c4c(O)c(c(/C=N/N5CCN(C)CC5)c(O)c4c3C2=O)NC(=O)/C(C)=C\C=C\[C@H](C)[C@H](O)[C@@H](C)[C@@H](O)[C@@H](C)[C@H](OC(C)=O)[C@@H]1C [Rifampicin]
Settings | Bliss interaction score
[1] | 0.0788
[2] | 0.0272
[3] | 0.0434
[4] | 0.0654

fitness, [5], one replicate
Settings | first compound 0.007812 µg/mL | first compound 0.01562 µg/mL | first compound 0.03125 µg/mL | first compound 0.0625 µg/mL | first compound 0.125 µg/mL | first compound 0.25 µg/mL
partner 0.025 µg/mL | – | – | – | 0.395 | 0.245 | 0.155
partner 0.05 µg/mL | 0.647 | 0.466 | 0.293 | – | – | –
partner 0.1 µg/mL | 0.262 | 0.213 | 0.219 | – | – | –
partner 0.2 µg/mL | 0.122 | 0.15 | 0.196 | 0 | 0 | 0

fitness, [5]
Settings | first compound 0.0625 µg/mL | first compound 0.07 µg/mL | first compound 0.125 µg/mL | first compound 0.14 µg/mL | first compound 0.25 µg/mL | first compound 0.28 µg/mL
partner 0.025 µg/mL | – | 0.161 | – | 0.109 | – | 0.121
partner 0.05 µg/mL | 0.362 | 0.17 | 0.215 | 0.164 | 0.108 | 0.102
partner 0.1 µg/mL | 0.177 | 0.118 | 0.119 | 0.0954 | 0.114 | 0.138
